Reference: paper PMC5458547, “Discovery of first-in-class reversible dual small molecule inhibitors against G9a and DNMTs in hematological malignancies” (Nature Communications, 2017)
In brackets after ≈: the same amount, converted by molar mass.

Tests used:
[1] = tested on: RT112; assay: Cell proliferation assay (MTS); assay type: cell-based; details: Homo sapiens, RT-112; Bladder
[2] = tested on: KG-1; assay: Cell proliferation assay (MTS); assay type: cell-based; details: Homo sapiens, AML, 48 h
[3] = tested on: SK-MEL-28; assay: Cell proliferation assay (MTS); assay type: cell-based; details: Homo sapiens, Melanoma
[4] = target: T1, TAF1 (Homo sapiens, UniProt P21675); assay: Epigenetics selectivity panel (BPS Bioscience); assay type: binding
T1 construct: purchased DiscoverX KINOMEscan (kinases); BPS Bioscience (epigenetic targets)

[5] = tested on: HELA; assay: Cell proliferation assay (MTS); assay type: cell-based; details: Homo sapiens, Cervical
[6] = target: T2, GLP (Homo sapiens, UniProt Q9H9B1); assay: Radioligand binding assay (3H-SAM), Reaction Biology; assay type: biochemical
T2 construct: purchased BPS Bioscience (contract panel)
T2 sequence (Q9H9B1 1-1298): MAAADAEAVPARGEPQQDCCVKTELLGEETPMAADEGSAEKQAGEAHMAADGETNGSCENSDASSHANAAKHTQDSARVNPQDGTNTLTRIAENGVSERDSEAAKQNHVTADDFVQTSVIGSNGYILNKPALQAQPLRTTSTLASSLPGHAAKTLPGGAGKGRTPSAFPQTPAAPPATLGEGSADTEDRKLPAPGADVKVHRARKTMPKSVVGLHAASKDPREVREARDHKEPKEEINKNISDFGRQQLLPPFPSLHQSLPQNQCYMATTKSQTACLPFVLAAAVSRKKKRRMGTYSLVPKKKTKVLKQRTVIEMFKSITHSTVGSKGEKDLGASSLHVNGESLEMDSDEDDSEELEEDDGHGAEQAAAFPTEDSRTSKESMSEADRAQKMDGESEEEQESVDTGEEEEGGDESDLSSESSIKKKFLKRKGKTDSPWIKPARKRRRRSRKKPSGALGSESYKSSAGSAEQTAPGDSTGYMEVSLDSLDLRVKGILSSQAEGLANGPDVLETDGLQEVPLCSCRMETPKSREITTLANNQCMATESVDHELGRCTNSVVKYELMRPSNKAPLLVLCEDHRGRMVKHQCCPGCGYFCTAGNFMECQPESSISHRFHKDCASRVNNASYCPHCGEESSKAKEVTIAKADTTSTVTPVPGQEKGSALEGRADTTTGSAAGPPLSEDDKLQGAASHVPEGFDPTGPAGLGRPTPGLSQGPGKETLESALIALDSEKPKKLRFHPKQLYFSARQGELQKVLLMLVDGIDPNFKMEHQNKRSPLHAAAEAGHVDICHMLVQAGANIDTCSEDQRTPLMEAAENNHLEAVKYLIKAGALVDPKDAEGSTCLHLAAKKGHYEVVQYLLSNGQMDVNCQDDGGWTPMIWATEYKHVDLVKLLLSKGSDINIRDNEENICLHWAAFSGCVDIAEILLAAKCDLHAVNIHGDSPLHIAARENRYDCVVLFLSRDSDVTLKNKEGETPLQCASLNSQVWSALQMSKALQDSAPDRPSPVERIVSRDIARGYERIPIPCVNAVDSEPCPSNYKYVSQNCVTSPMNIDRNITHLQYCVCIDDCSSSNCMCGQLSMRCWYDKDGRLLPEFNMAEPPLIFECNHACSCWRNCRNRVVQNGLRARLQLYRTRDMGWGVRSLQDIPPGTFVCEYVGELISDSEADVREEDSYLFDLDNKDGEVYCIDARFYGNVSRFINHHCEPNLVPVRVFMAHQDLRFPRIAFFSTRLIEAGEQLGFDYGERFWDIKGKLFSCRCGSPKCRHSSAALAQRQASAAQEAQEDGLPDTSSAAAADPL
Description: The radioligand binding assay against G9a, DNMT1 and GLP was performed by Reaction Biology Corporation (http://www.reactionbiology.com).

[7] = Liver microsomal stability; assay type: in vitro ADME; details: human, human liver microsomes; read-out: Liver Microsomal Stability. Estimation T1/2
[8] = Plasma protein binding (equilibrium dialysis); assay type: in vitro ADME; details: pH 7.4
Description: This study was conducted by Equilibrium Dialysis at Wuxi (http://www.wuxi.com/). HT-Dialysis plate (Model HTD 96 b, Cat# 1006) and the dialysis membrane (molecular weight cut off 12-14 kDa, Cat# 1101) were purchased from HT Dialysis LLC (Gales Ferry, CT). Human plasma and CD-1 mouse plasma from Bioreclamation were thawed prior to experiment and the pH was adjusted at 7.4. Concentrations of test compounds in starting solution (before dialysis), plasma side of the membrane and buffer side of the membrane were quantified by LC-MS/MS (Shimadzu LC 20-AD - API 4000) methodologies, using peak area ratio of analyte/internal standard. The fraction of unbound, bound and recovery were calculated.
Results are the average of three replicates. […]
(§1) The pH was adjusted to 7.40±0.05 using either 1 M sodium hydroxide or 1 M hydrochloric acid. Test compounds were diluted to 0.2 mM in DMSO and further diluted prior to testing to 10 µM in PBS, pH 7.4 (final 5% DMSO). The assay was performed using a 96-well multiscreen-IP PAMPA plate (Millipore, Cat. # MAIPN4510), whose PVDF membrane was pre-coated with 5 µL of 1% lecithin/dodecane mixture. 150 µL of PBS solution containing the test compounds were added to the donor chamber. Blank PBS (300 µL) was also added to the PTFE acceptor plate, and the donor and acceptor plates were assembled and incubated for 4 h at room temperature with shaking at 150 rpm. […]

[9] = Kinetic solubility; assay type: physicochemical; details: aqueous buffer, kinetic from dmso stock, pH 7.4, 50 mM phosphate buffer
Description: This study was conducted at Wuxi (http://www.wuxi.com/) at pH 7.4 (50 mM phosphate buffer). […]
as §1

[10] = tested on: HEL; assay: Cell proliferation assay (MTS); assay type: cell-based; details: Homo sapiens, AML, 48 h
[11] = tested on: MM1.S; assay: Cell proliferation assay (MTS); assay type: cell-based; details: Homo sapiens
[12] = tested on: LOVO; assay: Cell proliferation assay (MTS); assay type: cell-based; details: Homo sapiens, Colorectal
[13] = tested on: OPM2; assay: Cell proliferation assay (MTS); assay type: cell-based; details: Homo sapiens, OPM-2; MM
[14] = tested on: 451-LU; assay: Cell proliferation assay (MTS); assay type: cell-based; details: Homo sapiens, Melanoma
[15] = tested on: N417; assay: Cell proliferation assay (MTS); assay type: cell-based; details: Homo sapiens, SCLC
[16] = target: T3, CREBBP (Homo sapiens, UniProt Q92793); assay: Epigenetics selectivity panel (BPS Bioscience); assay type: binding
T3 construct: purchased DiscoverX KINOMEscan (kinases); BPS Bioscience (epigenetic targets)

[17] = tested on: MGH-U4; assay: Cell proliferation assay (MTS); assay type: cell-based; details: Homo sapiens; Bladder
[18] = in vivo; set-up: species or system mice; details: mouse, iv

T3 sequence (Q92793 whole entry): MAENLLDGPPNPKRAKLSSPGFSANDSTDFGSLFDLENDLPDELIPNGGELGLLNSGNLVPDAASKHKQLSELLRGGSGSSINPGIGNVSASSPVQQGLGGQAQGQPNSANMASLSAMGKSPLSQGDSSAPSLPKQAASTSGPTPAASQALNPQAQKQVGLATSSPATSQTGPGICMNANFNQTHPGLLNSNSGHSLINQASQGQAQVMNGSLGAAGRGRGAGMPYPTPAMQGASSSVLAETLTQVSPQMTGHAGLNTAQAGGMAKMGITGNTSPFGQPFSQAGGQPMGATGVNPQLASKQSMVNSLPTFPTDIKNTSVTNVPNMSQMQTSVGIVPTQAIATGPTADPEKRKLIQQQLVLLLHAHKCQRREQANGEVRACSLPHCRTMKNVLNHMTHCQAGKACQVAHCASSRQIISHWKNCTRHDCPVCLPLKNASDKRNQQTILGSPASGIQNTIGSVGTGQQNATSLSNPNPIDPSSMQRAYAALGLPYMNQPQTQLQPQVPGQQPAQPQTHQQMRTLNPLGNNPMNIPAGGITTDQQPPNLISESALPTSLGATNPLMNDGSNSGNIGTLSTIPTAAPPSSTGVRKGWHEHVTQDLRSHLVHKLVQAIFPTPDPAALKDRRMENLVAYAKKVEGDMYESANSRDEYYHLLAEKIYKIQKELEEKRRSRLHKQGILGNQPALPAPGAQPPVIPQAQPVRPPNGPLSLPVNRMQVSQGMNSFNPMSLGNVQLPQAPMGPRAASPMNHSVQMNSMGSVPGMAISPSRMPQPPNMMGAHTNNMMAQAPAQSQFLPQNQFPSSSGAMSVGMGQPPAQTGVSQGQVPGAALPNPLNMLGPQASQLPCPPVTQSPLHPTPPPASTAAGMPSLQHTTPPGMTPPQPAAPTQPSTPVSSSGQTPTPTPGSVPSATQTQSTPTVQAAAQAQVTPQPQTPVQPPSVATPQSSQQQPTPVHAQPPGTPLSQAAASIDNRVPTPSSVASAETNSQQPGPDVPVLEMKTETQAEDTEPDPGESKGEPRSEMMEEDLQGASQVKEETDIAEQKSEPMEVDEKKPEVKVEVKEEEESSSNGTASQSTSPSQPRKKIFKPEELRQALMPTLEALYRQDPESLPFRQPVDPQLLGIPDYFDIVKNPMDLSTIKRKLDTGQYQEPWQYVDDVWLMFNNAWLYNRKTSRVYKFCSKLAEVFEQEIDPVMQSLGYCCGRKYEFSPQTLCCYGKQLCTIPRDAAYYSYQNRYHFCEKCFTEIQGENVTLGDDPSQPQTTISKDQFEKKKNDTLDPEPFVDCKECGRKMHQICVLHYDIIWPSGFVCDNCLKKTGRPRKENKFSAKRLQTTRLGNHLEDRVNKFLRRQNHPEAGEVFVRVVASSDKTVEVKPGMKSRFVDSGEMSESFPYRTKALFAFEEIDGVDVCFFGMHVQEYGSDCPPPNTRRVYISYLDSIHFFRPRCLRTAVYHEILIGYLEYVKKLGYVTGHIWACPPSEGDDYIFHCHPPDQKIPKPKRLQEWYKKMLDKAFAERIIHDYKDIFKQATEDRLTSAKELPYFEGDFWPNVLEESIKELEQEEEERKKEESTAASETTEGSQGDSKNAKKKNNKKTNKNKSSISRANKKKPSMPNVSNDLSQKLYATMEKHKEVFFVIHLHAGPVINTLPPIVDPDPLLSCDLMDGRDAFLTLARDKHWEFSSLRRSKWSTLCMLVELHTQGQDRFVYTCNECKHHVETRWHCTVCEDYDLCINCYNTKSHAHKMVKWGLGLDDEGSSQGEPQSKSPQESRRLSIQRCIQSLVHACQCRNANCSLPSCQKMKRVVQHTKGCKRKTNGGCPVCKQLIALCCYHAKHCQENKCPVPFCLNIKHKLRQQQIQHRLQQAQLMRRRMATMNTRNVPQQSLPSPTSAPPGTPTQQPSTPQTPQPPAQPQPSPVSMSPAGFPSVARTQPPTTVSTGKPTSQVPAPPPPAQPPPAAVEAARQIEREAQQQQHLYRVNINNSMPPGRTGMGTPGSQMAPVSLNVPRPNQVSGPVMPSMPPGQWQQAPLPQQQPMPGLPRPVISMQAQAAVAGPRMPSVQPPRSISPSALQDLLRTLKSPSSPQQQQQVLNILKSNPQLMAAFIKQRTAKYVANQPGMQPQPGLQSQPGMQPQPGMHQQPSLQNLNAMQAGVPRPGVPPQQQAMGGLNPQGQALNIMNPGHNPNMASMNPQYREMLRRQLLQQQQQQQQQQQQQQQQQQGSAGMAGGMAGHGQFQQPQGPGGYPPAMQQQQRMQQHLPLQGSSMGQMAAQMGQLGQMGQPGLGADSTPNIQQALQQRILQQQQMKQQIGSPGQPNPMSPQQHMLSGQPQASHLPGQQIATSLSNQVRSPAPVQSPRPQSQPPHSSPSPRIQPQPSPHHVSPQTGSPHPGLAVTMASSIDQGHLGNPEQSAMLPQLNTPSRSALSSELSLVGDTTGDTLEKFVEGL
T1 sequence (P21675 whole entry): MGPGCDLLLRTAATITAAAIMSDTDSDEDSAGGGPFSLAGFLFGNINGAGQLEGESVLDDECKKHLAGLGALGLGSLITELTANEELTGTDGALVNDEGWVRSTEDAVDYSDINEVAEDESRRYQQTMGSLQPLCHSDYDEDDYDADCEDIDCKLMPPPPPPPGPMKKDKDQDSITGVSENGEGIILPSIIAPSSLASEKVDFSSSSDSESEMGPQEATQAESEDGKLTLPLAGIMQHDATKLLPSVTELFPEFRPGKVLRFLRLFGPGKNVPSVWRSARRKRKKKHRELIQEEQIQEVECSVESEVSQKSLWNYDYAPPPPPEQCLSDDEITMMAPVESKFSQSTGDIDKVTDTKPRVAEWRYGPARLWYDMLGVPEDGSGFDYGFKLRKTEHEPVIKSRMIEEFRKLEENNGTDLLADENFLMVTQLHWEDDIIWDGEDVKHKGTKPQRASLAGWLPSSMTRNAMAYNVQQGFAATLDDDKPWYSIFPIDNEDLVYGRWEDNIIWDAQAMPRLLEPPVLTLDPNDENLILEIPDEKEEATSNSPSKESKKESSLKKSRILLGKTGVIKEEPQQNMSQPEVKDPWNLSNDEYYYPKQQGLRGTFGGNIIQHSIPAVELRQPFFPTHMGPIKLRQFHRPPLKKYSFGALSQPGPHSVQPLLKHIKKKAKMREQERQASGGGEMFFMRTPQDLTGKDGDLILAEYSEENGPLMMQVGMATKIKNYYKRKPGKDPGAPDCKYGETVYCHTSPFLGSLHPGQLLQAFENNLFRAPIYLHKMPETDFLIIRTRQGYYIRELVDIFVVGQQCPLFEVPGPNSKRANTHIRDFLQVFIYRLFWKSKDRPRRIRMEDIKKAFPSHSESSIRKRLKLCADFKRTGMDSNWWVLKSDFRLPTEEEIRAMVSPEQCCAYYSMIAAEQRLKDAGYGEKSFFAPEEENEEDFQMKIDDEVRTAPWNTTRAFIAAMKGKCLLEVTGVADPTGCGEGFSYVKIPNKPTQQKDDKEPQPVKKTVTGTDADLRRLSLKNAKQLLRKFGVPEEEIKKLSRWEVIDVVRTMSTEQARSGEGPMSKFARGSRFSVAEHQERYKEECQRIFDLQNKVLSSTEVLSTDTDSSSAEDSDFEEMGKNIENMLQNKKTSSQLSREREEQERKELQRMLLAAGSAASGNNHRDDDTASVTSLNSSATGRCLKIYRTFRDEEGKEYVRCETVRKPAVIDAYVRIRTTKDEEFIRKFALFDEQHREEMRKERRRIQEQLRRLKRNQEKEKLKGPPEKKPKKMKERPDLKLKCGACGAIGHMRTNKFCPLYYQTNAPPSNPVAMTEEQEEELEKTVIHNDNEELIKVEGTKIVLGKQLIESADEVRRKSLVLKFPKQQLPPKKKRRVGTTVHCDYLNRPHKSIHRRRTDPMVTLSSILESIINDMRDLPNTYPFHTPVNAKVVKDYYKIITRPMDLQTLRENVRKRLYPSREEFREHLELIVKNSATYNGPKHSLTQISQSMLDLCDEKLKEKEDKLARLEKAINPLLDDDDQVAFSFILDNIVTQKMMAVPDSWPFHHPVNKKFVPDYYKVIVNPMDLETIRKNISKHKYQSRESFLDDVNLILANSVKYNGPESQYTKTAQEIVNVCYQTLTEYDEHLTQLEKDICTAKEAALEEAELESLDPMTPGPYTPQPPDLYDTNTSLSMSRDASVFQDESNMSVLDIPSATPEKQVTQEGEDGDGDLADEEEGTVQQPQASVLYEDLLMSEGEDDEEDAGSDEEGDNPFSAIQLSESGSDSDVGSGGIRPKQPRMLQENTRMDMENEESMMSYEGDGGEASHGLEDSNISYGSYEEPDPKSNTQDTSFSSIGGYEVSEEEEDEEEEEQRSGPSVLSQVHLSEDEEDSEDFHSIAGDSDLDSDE

Row | SMILES | GI50 [1] [nM] | GI50 [2] [nM] | GI50 [3] [nM] | inhibition at 10 µM [4] [%] | GI50 [5] [nM] | IC50 [6] [nM] | half-life at 1 µM [7] [h] | fraction unbound ([8]; CD-1, mouse) | fraction unbound ([8]; human) | solubility [9] [µg/mL] | GI50 [10] [nM] | GI50 [11] [nM] | GI50 [12] [nM] | GI50 [13] [nM] | GI50 [14] [nM] | GI50 [15] [nM] | inhibition at 10 µM [16] [%] | GI50 [17] [nM] | further results
1 | COc1cc2c(NC3CCN(C)CC3)cc(-c3ccc(C)o3)nc2cc1OCCCN1CCCC1 [CM-272, 6-methoxy-2-(5-methyl-2-furyl)-N-(1-methyl-4-piperidyl)-7-(3-pyrrolidin-1-ylpropoxy)quinolin-4-amine] | 899 | 3540 | 874 | 0 | 689 | 7 | > 2.42 | 0.25 | 0.244 | 118 (≈ 246 µM) | > 10000 | 1080 | 1220 | 2610 | 378 | 1320 | 5 | 725 | clearance ([18]; […]): 15.2 mL/min/kg; half-life ([18]; […]): 24.2 h
2 | COc1cc2c(NCC3CCN(C)CC3)cc(-c3ccc(C)o3)nc2cc1OCCCN1CCCC1 [CM-579, 6-methoxy-2-(5-methyl-2-furyl)-N-[(1-methyl-4-piperidyl)methyl]-7-(3-pyrrolidin-1-ylpropoxy)quinolin-4-amine] | 319 | > 10000 | 1390 | 4 | 109 | 67 | 1.48 | 0.046 | 0.147 | > 144 | > 10000 | 3790 | 297 | > 5000 | 69 | 409 | 0 | 173 | AUC(0-t) ([18]; 1 mg/kg): 0.268 µM·h; Cmax ([18]; 1 mg/kg): 191 nM; clearance ([18]; 1 mg/kg): 95 mL/min/kg; half-life ([18]; 1 mg/kg): 6.26 h
